This note sets out measurements from ChEMBL document CHEMBL5291721, “A preclinical secondary pharmacology resource illuminates target-adverse drug reaction associations of marketed drugs” (Nat Commun, 2023).

Assay [1] concerns the target T1, Peroxisome proliferator-activated receptor gamma (Homo sapiens, UniProt P37231).
T1 sequence (P37231 whole entry): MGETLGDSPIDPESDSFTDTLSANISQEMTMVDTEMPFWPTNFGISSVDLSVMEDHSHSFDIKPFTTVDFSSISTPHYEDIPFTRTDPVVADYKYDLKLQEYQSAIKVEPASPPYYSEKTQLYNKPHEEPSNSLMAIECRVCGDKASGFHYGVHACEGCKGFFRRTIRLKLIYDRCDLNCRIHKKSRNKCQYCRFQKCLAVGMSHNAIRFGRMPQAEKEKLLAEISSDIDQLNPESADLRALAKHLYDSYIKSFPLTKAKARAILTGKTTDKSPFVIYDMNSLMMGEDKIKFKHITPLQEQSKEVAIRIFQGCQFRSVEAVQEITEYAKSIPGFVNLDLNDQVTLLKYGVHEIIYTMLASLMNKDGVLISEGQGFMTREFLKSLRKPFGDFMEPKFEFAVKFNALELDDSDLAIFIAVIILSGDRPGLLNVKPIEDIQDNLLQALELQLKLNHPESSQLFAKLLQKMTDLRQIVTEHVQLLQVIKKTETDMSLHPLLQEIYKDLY
The format is functional.

Assay [2] has as its target T2, Muscarinic acetylcholine receptor M1 (Homo sapiens, UniProt P11229).
T2 sequence (P11229 whole entry): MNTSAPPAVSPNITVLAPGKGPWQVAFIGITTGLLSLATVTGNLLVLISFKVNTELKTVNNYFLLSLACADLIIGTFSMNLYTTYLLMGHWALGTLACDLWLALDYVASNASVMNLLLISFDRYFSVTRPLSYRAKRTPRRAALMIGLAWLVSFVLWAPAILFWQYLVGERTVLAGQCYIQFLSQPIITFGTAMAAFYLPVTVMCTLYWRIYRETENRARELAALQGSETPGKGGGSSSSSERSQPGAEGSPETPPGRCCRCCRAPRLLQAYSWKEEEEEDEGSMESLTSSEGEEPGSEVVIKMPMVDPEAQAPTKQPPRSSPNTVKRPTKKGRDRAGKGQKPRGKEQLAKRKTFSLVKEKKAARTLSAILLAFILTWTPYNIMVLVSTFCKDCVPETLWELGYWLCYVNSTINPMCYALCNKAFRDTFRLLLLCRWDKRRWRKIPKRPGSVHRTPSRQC

The target in assay [3] is 5-hydroxytryptamine receptor 2A (Homo sapiens, UniProt P28223).
Sequence of 5-hydroxytryptamine receptor 2A (P28223 whole entry): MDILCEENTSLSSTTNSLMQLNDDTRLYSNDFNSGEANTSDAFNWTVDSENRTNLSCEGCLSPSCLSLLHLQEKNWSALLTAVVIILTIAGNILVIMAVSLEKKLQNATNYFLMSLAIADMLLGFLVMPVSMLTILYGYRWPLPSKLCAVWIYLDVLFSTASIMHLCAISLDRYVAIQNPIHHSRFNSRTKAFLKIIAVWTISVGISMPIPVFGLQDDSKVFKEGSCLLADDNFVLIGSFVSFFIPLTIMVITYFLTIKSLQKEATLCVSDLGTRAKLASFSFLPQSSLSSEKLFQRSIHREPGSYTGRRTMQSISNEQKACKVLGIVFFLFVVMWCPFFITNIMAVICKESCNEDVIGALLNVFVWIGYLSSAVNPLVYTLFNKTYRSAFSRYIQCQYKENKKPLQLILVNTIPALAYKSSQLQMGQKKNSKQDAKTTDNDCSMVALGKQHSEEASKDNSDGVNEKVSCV
Another assay addresses Histamine H1 receptor (Homo sapiens, UniProt P35367). The format is functional, cell-based.
The next assay addresses T3, Androgen receptor (Rattus norvegicus, UniProt P15207).
T3 sequence (P15207 whole entry): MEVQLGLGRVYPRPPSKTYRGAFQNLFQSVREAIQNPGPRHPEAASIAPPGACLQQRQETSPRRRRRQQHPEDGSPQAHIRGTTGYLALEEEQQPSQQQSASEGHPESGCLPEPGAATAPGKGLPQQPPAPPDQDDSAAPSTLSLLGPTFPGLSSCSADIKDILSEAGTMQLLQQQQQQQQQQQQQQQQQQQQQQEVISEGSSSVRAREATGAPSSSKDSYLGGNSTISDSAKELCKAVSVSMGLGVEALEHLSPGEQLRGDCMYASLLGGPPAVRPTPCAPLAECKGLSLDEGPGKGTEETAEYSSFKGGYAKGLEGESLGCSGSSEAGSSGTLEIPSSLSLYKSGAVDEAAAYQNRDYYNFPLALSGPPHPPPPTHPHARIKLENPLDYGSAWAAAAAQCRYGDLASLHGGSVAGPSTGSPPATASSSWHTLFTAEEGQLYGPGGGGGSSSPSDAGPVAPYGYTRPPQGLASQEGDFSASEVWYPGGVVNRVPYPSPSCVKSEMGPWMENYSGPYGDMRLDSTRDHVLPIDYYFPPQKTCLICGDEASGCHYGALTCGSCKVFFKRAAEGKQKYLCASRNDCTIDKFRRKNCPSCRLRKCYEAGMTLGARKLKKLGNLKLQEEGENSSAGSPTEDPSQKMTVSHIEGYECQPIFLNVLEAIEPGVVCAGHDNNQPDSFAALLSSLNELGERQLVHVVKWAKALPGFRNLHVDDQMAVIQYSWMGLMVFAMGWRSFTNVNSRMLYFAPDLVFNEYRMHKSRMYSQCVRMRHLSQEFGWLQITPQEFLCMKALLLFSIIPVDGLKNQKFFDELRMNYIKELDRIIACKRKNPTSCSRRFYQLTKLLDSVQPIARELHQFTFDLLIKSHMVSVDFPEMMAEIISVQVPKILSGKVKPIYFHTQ

The target in assay [4] is T4, Muscarinic acetylcholine receptor M2 (Homo sapiens, UniProt P08172).
T4 sequence (P08172 whole entry): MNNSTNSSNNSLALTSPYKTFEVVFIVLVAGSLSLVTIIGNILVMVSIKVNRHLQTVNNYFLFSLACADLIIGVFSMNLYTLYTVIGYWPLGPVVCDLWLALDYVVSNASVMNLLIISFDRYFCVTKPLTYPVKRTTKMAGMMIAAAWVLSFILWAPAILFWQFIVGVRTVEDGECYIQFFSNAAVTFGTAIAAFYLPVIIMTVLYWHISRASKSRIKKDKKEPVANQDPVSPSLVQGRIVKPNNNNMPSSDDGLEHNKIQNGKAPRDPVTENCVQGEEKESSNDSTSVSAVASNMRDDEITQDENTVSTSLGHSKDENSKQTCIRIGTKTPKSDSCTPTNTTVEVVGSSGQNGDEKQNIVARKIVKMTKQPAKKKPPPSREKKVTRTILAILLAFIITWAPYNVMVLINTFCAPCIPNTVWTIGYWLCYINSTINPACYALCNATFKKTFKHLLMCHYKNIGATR

The target of assay [5] is T5, Type-2 angiotensin II receptor (Homo sapiens, UniProt P50052).
T5 sequence (P50052 whole entry): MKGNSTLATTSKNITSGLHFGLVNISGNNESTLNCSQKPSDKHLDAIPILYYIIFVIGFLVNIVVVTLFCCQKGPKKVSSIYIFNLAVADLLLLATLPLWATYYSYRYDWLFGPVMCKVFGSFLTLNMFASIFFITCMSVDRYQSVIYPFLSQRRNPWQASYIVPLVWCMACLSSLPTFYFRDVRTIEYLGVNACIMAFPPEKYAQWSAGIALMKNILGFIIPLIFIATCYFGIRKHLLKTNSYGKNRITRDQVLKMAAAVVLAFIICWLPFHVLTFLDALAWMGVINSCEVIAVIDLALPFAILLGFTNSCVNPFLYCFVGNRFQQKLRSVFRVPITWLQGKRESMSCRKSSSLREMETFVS
It is filed as functional.

In assay [6] the target is 5-hydroxytryptamine receptor 7 (Homo sapiens, UniProt P34969).
Sequence of 5-hydroxytryptamine receptor 7 (P34969 whole entry): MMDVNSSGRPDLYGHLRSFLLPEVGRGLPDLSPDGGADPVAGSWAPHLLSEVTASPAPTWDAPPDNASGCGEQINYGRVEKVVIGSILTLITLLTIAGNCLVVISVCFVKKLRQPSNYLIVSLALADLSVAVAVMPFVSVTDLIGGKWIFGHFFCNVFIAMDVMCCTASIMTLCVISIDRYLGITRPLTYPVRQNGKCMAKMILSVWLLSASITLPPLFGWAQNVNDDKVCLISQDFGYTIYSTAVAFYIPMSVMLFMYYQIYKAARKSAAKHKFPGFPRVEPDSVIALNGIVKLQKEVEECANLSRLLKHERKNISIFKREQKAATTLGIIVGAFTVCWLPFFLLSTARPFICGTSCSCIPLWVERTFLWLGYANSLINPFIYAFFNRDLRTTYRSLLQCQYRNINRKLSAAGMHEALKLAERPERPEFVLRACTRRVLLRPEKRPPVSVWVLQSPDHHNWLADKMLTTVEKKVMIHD
Assay [7] concerns the target 5-hydroxytryptamine receptor 5A (Homo sapiens, UniProt P47898).
The target in assay [8] is Gamma-aminobutyric acid type B receptor subunit 1 (Homo sapiens, UniProt Q9UBS5).
Sequence of Gamma-aminobutyric acid type B receptor subunit 1 (Q9UBS5 whole entry): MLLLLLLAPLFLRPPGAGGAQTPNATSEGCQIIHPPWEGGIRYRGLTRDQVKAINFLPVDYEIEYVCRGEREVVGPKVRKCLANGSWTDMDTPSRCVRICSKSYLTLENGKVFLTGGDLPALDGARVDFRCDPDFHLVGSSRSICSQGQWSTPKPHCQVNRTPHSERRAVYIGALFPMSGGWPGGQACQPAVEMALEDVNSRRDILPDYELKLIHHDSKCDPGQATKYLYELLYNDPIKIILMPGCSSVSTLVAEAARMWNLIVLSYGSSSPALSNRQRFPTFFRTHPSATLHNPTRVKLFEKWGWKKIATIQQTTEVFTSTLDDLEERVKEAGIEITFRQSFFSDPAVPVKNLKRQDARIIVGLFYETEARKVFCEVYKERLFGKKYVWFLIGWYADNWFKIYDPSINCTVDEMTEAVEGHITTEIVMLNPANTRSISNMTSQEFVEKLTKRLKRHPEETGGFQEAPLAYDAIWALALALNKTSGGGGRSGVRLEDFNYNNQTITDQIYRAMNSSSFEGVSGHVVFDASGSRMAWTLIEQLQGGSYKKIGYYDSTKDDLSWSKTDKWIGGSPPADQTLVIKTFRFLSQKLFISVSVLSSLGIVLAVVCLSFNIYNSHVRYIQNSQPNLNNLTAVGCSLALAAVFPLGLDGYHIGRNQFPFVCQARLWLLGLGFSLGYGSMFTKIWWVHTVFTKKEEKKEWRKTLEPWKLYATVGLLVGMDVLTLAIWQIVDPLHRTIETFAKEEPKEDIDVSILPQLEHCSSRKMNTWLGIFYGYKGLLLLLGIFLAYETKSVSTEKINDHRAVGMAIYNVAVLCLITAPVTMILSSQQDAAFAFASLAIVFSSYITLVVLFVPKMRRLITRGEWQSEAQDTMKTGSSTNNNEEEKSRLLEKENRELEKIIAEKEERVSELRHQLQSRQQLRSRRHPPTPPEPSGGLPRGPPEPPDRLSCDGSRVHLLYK
Further: assay procedure not described here.

Sequence of Histamine H1 receptor (P35367 whole entry): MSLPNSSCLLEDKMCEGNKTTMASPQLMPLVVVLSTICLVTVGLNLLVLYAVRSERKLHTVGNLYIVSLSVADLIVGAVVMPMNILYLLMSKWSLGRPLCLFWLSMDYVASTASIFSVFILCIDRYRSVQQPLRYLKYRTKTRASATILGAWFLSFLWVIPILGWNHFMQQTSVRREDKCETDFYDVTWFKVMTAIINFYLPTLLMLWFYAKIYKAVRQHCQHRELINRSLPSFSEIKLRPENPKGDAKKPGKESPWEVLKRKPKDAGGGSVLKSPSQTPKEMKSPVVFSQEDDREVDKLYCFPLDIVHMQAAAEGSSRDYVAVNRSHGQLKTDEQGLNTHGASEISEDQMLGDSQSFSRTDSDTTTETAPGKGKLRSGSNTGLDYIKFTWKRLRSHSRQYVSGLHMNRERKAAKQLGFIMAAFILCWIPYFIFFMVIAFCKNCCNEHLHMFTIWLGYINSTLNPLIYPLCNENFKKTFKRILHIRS
Sequence of 5-hydroxytryptamine receptor 5A (P47898 whole entry): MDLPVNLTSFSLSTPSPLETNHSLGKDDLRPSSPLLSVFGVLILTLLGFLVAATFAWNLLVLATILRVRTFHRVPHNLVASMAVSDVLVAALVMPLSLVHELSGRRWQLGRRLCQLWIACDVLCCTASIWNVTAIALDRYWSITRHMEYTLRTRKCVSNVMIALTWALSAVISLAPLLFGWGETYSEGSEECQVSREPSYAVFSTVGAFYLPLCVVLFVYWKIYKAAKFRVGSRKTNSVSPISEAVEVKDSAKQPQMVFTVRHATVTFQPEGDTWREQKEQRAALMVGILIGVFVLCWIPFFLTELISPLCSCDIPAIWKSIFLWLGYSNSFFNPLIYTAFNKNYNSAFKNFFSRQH

One may read the AC50 as the concentration giving half of the maximal activity seen. Higher therefore signals weaker potency. Turning to `CC[C@@H](C(N)=O)N1CCCC1=O`, the AC50 in [1] is above 30 µM.

In turn, `CCC(CC)(CC(=O)Nc1cccc(/C=C/c2nc(C3CCC3)cs2)c1)C(=O)O` registered an AC50 in assay [1] above 30 µM.

In the case of `Nc1ccncc1N` [AMIFAMPRIDINE], the AC50 in assay [2] is above 30 µM.

In [3], `C=CCN1C[C@H](C(=O)N(CCCN(C)C)C(=O)NCC)C[C@@H]2c3cccc4[nH]cc(c34)C[C@H]21` [CABERGOLINE] yielded an AC50 of 0.0077 µM.

For the compound `CN1CCN(C2=Nc3ccccc3Sc3ccc(Cl)cc32)CC1` [CLOTHIAPINE], the AC50 at Histamine H1 receptor is above 30 µM.

In the case of `CCOc1ccc(Cc2cc([C@@H]3O[C@H](CO)[C@@H](O)[C@H](O)[C@H]3O)ccc2Cl)cc1` [DAPAGLIFLOZIN], the AC50 at Androgen receptor is above 30 µM; in assay [4] it was above 10 µM.

`CC[C@H]1CN2CCc3cc(OC)c(OC)cc3[C@@H]2C[C@@H]1C[C@H]1NCCc2cc(OC)c(OC)cc21` [EMETINE] yielded an AC50 in assay [1] above 30 µM.

`COc1ccc(C(=O)Nc2ccccc2CCC2CCCCN2C)cc1` (stereo unspecified) [ENCAINIDE]: the figures for the AC50 (in [3]; at Histamine H1 receptor; in assay [4]) were 0.103 µM, above 30 µM and above 10 µM, respectively.

`CCOC(=O)/C=C1\SC(N2CCCCC2)C(=O)N1C` (stereo unspecified) [ETOZOLIN] had an AC50 in assay [5] above 100 µM.

Regarding `O=[N+]([O-])O[C@@H]1CO[C@H]2[C@@H]1OC[C@@H]2O` [ISOSORBIDE MONONITRATE], the AC50 in assay [3] and in [4] was above 10 µM throughout.

As to `Cc1cc(C)c(NC(=O)CN(CC(=O)O)CC(=O)O)c(C)c1Br` [MEBROFENIN], the AC50 in assay [2] was above 30 µM.

In [2], `COc1ccccc1N1CCN(CC(O)COc2cccc3ccccc23)CC1` (stereo unspecified) [NAFTOPIDIL] registered an AC50 above 30 µM.

Take `COc1cc2nc(N3CCN(C(=O)c4ccco4)CC3)nc(N)c2cc1OC` [PRAZOSIN]: the values for the AC50 in assay [4] and in [5] were 13.2 µM and above 100 µM, respectively.

As for `O=[N+]([O-])c1cn2c(n1)OC[C@@H](OCc1ccc(OC(F)(F)F)cc1)C2` [PRETOMANID], the AC50 in assay [3] and in assay [6] was above 10 µM in each case.

Compound `Cc1oc(=O)oc1CN1CCN(c2cc3c(cc2F)c(=O)c(C(=O)O)c2n3C(C)S2)CC1` (stereo unspecified) [PRULIFLOXACIN] gave an AC50 in assay [2] above 30 µM.

As to `CCN1CCCC1CNC(=O)c1cc(S(N)(=O)=O)ccc1OC` (stereo unspecified) [SULPIRIDE], in assay [5], the AC50 was above 100 µM.

Turning to `CCCCCNC(=N)N/N=C/c1c[nH]c2ccc(OC)cc12` [TEGASEROD], the AC50 in assay [3] was 0.174 µM; in assay [7], 0.19 µM; in assay [8] it was above 10 µM; in [6], 0.802 µM; in [1] it was above 30 µM.

In assay [2], `C=CCCCCCCCCC(=O)O` [UNDECYLENIC ACID] returned an AC50 above 30 µM.

`CCOc1ccccc1OCC1CNCCO1` (stereo unspecified) [VILOXAZINE]: the AC50 is above 30 µM at Histamine H1 receptor; above 10 µM in assay [7]; above 10 µM in assay [8]; above 30 µM at Androgen receptor; above 10 µM in assay [6]; above 10 µM in assay [4]. Further, in assay [5], the AC50 was above 100 µM.

On Histamine H1 receptor, `CN(C)CCc1c[nH]c2ccc(C[C@H]3COC(=O)N3)cc12` [ZOLMITRIPTAN] yielded an AC50 above 30 µM.
